Counter-ions that a name gives are not always drawn.
How the values were obtained:
[1] = Single ascending dose phase 1 study: pharmacokinetics of avibactam after oral avibactam derivative (3) in healthy human volunteers; format: in vivo; conditions: following oral administration of avibactam derivative (3)
Method: The pharmacokinetics of avibactam provided as an orally administered avibactam derivative was determined on healthy human volunteers.
A randomized, double-blind, placebo-controlled single ascending dose phase 1 study was undertaken with healthy male and female adults. Three cohorts, each comprising 10 patients received a single oral dose of 300 mg, 900 mg, or 1,350 mg avibactam derivative (3) (ethyl 3-(((((1R,2S,5R)-2-carbamoyl-7-oxo-1,6-diazabicyclo[3.2.1]octan-6-yl)oxy)sulfonyl)oxy)-2,2-dimethylpropanoate) under fed conditions as a suspension of 10 mg/mL (n=8) or placebo (n−2).
Plasma and urine PK samples were collected prior to dosing and at frequent intervals after dosing.

[2] = Avibactam oral bioavailability in humans; format: in vivo; conditions: human patients, oral avibactam derivative
From the text: Avibactam derivatives, when orally administered, provide an enhanced oral bioavailability of the β-lactamase inhibitor compared to the oral bioavailability of the parent β-lactamase inhibitor. […] The oral bioavailability of avibactam in a human is about 7%.

[3] = human, avibactam itself given orally; cited from earlier work

Row | SMILES | clearance of avibactam in the systemic compartment [1] | avibactam oral bioavailability [2] | oral bioavailability of avibactam [3]
1 | CCOC(=O)C(C)(C)COS(=O)(=O)ON1C(=O)N2C[C@H]1CC[C@H]2C(N)=O [avibactam derivative (3), ethyl 3-(((((1R,2S,5R)-2-carbamoyl-7-oxo-1,6-diazabicyclo[3.2.1]octan-6-yl)oxy)sulfonyl)oxy)-2,2-dimethylpropanoate] | rapid clearance | greater than 50 % F | 
2 | NC(=O)[C@@H]1CC[C@@H]2CN1C(=O)N2OS(=O)(=O)O [avibactam, [2S,5R]-2-carbamoyl-7-oxo-1,6-diazabicyclo[3.2.1]octan-6-yl hydrogen sulfate] |  |  | about 7%

From patent US20240245705A1, “ORALLY ADMINISTERED COMBINATIONS OF AMOXICILLIN AND AVIBACTAM DERIVATIVES FOR TREATING MYCOBACTERIAL INFECTIONS” (Arixa Pharmaceuticals, Inc., priority 2019, published 2024)
